Test results from patent US12350308B2, “Phosphorylcholine conjugates and uses thereof” (TPCERA LTD., priority 2013, dated 2025).
Where no end group is shown, it is not given here.

Columns and labels:
Format in all cases: in vivo
[1] = tested on: splenocytes of lupus mice; assay: Cytokine mRNA in splenocytes of lupus mice treated with PC-tuftsin (real time RT-PCR); conditions: normalized to β-actin; vs PBS
Procedure: (§1) Mice, from age of 14 weeks, received subcutaneously PC-tuftsin at the concentration of 50 μg/0.1 ml per mouse (treatment; n=10) or PBS (control; n=10), three times a week. In the cytokines studies, the relative mRNA expression levels of pro-inflammatory cytokine IFNγ and anti-inflammatory cytokine TGFβ were analyzed by real time RT-PCR using LightCycler (Roche). Total RNA was isolated from splenocytes and was reverse-transcribed into cDNA by using Moloney Murine Leukemia Virus Reverse Transcriptase (Promega). The resulting cDNA was subjected to real-time RT-PCR in the presence of specific primers, according to the manufacturer's instructions (Table 2). The relative expression levels of IFNγ and TGFβ were normalized to β-actin levels.

male C57BL/6 mice = assay: DSS induced acute colitis in mice; conditions: even after day 12
Procedure: The effect of PC-tuftsin derivative (SEQ ID NO: 25) on colitis development was determined in a mouse model subjected to induction of acute colitis by dextran sulfate sodium (DSS) treatment. Specifically, induction of colitis was carried out in male C57BL/6 mice (“colitis mice”) by supplementing the drinking water (2.5% wt/v) for five days with DSS (mol. wt. 36,000-50,000).
Two groups of mice were fed daily via oral ingestion using a feeding-needle, with PC-tuftsin derivative at a concentration of 500 μg/0.1 ml per mouse (treatment; n=10), or PBS (control; n=10). These compounds were given during 11 days starting two days before DSS administration.
Assessment of colitis development was performed by monitoring body weight, rectal bleeding, stool consistency, and survival every second day. Intestinal bleeding was followed by Hemoccult test and observation of bleeding signs on the anus or gross bleeding. The daily disease activity index (DAI) was calculated by grading on a scale of zero to four the following parameters: change in weight (0, <1%; 1, 1-5%; 2, 5-10%; 3, 10— 15%; and 4, >15%), intestinal bleeding (0, negative; 4, positive), and stool consistency (0, normal; 2, loose stools; 4, diarrhea). The combined scores were then divided by three to obtain the final disease activity index. Ten days following disease induction, mice were sacrificed and the large intestine was collected and evaluated for colon length and microscopic colonic damage. For microscopic scoring, the proximal, medial, and distal portions of the colon and the cecum were fixed in 10% phosphate-buffered formalin. Paraffin-embedded sections were stained with H&E. The degree of histological damage and inflammation was graded in a blinded fashion by an expert pathologist

Tregs CD4+CD25+FOXP3+ = assay: T regulatory cell profiling by FACS in splenocytes of lupus mice (PC-tuftsin study); conditions: PBS 4±0.6 percent
Procedure: as §1
Finally, a T regulatory cell (Tregs) profiling assay was performed in isolated splenocytes incubated with the following antibodies: anti-CD4^+FITC, anti-CD25^+APC and anti-FOXP3^+PE (eBioscience) and analyzed by FACS. Forward and side scatter gates adjusted to include all cells and to exclude debris (Becton Dickinson). Cells were gated on CD4+ cells, and for intracellular staining, the cells were incubated with a fixation solution, washed and resuspended in permeabilization solution (Serotec). Isotype control was used as reference.

NZBXW/F1 mice [2] = assay: Proteinuria in lupus mice treated with PC-tuftsin (Multistix); conditions: 50 μg/0.1 ml s.c. 3 times a week from 14 weeks; vs PBS
Procedure: The effect of PC-tuftsin (TPC) on proteinuria was determined in a mouse model for lupus, specifically, female NZBXW/F1 mice that develop lupus on a genetic background. Proteinuria levels were measured using Multistix (Bayer Diagnostics). This type of measurement is typically used in the clinic for assessing manifestation of lupus nephritis. Lupus nephritis is an inflammation of the kidney caused by systemic lupus erythematosus (SLE).
The mice, from age of 14 weeks, received subcutaneously PC-tuftsin at the concentration of 50 μg/0.1 ml per mouse (treatment; n=10) or PBS (control; n=10), three times a week. Proteinuria was defined as having a protein level of above 100 mg/dl in the urine.

[3] = tested on: splenocytes of lupus mice; assay: Secreted cytokine protein of splenocytes of lupus mice treated with PC-tuftsin (DuoSet); conditions: splenocytes incubated 72 hours
Procedure: as §1
Splenocytes protein level of anti-inflammatory cytokines TGFβ, and IL-10 and pro-inflammatory cytokines IFNγ, and IL-17 were quantified by DuoSet (R&D Systems), according to the manufacturer's instructions. Briefly, spleens from mice treated with PC-tuftsin or PBS were harvested, splenocytes were isolated (5×10^6/ml) and incubated for 72 hours and thereafter assessed for contents of secreted cytokines.

NZBXW/F1 mice [4] = assay: Kidney morphology in lupus mice treated with PC-tuftsin (PAS, immunofluorescence); conditions: 50 μg/0.1 ml s.c. 3 times a week
Procedure: The effect of PC-tuftsin on the morphology of kidneys was determined in a lupus mouse model as in Examples 2. Kidney section obtained from kidneys of mice sacrificed after treatments were paraffin embedded. PAS staining was used to detect pathology of nephritis. Immunofluorescence staining was used for detecting immune complex deposits. The latter was implemented by incubating the paraffin embedded sections with FITC-conjugated-anti-mouse-IgG. Evaluation was performed by a pathologist.
Mice, from age of 14 weeks, received subcutaneously PC-tuftsin at the concentration of 50 μg/0.1 ml per mouse (treatment; n=10) or PBS (control; n=10), three times a week.

PC-tuftsin: PC conjugated to tuftsin (threonine-lysine-proline-arginine, TKPR; SEQ ID NO: 17) using 4-aminophenylphosphorylcholine (also: phosphorylcholine conjugated via 4-aminophenylphosphorylcholine, site not given here)
relative mRNA expression of IFNγ in splenocytes [1]: significantly reduced | relative mRNA expression of TGFβ in splenocytes [1]: significantly enhanced | mice still alive (male C57BL/6 mice): 100% | enhancement in Tregs CD4+CD25+FOXP3+ expression level (Tregs CD4+CD25+FOXP3+): 18±2% | proteinuria (protein level above 100 mg/dl) (NZBXW/F1 mice [2]): significant attenuation | increase in protein level of IL-10 ([3]; vs PBS): 4.8 | increase in protein level of TGFβ ([3]; vs PBS): 5.1 | reduction of IFNγ concentration ([3]; vs control): 5.2 fold | reduction of IL-17 concentration ([3]; vs control): 2.7 fold | pathology of nephritis (PAS staining) (NZBXW/F1 mice [4]): did not display any pathology of nephritis | immune complex deposits in the glomeruli (NZBXW/F1 mice [4]; vs PBS): very mild immune complex deposits
